The record followed here is patent US20120101100A1 (priority 2008, published 2012).

This experiment deals with S. aureus GyrB ATPase (Staphylococcus aureus, UniProt P0A0K8). The experiment can be described thus: S. aureus (SAU) GyrB ATPase inhibition, malachite green phosphate detection (E. coli GyrA + S. aureus GyrB). The class given is biochemical. The settings on record: compound concentration of 1.0 μM unless otherwise noted; average value where assay was carried out more than once; read-out: S. aureus (SAU) GyrB ATPase % Inhibition. The method, boiled down:
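Phosphate from ATP hydrolysis (500 μM ATP) read as malachite green/molybdate absorbance at 650 nm after acid quench. Reaction: 1.25 nM S. aureus GyrB plus 1.25 nM E. coli GyrA, sheared DNA, Hepes pH 7.5 with Mg2+. IC50 fitted over 10 concentrations, normalised to DMSO (2%) and novobiocin (2 μM) controls.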

S. aureus GyrB ATPase, sequence (P0A0K8 whole entry): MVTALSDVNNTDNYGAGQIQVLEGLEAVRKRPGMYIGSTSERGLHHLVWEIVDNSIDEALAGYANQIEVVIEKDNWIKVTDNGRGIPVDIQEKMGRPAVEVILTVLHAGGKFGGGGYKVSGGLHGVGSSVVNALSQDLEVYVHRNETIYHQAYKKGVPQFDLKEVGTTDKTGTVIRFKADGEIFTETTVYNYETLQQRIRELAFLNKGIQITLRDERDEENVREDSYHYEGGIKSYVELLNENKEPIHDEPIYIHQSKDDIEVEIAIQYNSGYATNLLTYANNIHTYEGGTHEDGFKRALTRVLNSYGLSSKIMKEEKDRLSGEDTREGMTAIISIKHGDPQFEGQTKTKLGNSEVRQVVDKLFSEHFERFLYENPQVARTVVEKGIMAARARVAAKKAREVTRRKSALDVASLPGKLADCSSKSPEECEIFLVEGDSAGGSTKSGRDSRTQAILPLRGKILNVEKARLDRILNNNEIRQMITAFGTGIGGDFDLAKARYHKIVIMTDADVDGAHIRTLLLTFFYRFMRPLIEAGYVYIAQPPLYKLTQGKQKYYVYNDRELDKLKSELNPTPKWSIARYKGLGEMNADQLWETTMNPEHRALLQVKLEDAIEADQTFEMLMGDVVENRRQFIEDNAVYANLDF
S. aureus GyrB ATPase, sequence (P0AES4 whole entry, further chain): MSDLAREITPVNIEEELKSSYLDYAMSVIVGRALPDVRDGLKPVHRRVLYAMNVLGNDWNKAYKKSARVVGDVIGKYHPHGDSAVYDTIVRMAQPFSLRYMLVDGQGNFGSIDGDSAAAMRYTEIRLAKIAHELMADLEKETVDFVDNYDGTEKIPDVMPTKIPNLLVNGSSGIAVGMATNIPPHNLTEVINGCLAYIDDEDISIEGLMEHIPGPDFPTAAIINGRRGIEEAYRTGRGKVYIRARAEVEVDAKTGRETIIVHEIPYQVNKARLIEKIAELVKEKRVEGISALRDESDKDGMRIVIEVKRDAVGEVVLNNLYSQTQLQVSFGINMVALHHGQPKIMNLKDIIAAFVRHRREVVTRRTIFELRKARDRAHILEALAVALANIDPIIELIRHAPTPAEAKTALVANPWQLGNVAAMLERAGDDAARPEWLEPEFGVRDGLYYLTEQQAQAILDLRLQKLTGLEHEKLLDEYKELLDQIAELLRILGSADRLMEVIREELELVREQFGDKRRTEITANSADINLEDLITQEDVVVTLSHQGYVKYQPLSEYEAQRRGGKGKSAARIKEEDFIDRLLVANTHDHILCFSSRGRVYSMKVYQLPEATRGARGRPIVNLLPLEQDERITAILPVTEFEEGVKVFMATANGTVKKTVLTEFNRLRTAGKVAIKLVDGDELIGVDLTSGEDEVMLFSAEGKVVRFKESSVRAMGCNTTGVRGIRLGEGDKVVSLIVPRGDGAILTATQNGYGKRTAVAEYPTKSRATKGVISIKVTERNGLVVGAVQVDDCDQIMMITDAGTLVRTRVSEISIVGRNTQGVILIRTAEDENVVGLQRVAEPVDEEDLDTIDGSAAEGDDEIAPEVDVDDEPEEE

The term inhibition denotes the change of the read-out against control, counted positive when it falls. With `CCNC(=O)Nc1cc(-c2nc(C(F)(F)F)cs2)c(-c2cc(-c3n[nH]c(=O)o3)cnc2OC2CCN(C)CC2)cn1` [Example 215], the inhibition at 1 µM was determined as 96%.

As to `CCNC(=O)Nc1cc(-c2nc(C(F)(F)F)cs2)c(-c2cc(-c3n[nH]c(=O)o3)cnc2OCC2CC2)cn1` [Example 216], the inhibition at 1 µM was found to be 96%.

Take `CCNC(=O)Nc1cc(-c2nc(C(F)(F)F)cs2)c(-c2cc(-c3n[nH]c(=O)o3)cnc2OC2CCCC2)cn1` [Example 217]: the inhibition at 1 µM is 95%.

In the case of `CCNC(=O)Nc1cc(-c2nc(C(F)(F)F)cs2)c(-c2cc(-c3n[nH]c(=O)o3)cnc2OC2CC(C)(C)N(C)C(C)(C)C2)cn1` [Example 218], the inhibition at 1 µM is 99%.

As for `CCNC(=O)Nc1cc(-c2nc(C(F)(F)F)cs2)c(-c2cc(-c3n[nH]c(=O)o3)cnc2OC2CCN(C(C)C)CC2)cn1` [Example 219], the inhibition at 1 µM was 97%.

With `CCNC(=O)Nc1cc(-c2nc(C(F)(F)F)cs2)c(-c2cc(-c3n[nH]c(=O)o3)cnc2OCCCC2CCCC2)cn1` [Example 220], the inhibition at 1 µM amounted to 91%.

For `CCNC(=O)Nc1cc(-c2nc(-c3cnn(C)c3)cs2)c(-c2cc(-c3n[nH]c(=O)o3)cnc2OCC2CC2)cn1` [Example 221], the inhibition at 1 µM was found to be 99%.

In the case of `CCNC(=O)Nc1cc(-c2nc(-c3cnn(C)c3)cs2)c(-c2cc(-c3n[nH]c(=O)o3)cnc2OC2CCOCC2)cn1` [Example 222], the inhibition at 1 µM is 97%.

On to `CCNC(=O)Nc1cc(-c2nc(C(F)(F)F)cs2)c(-c2cc(-c3n[nH]c(=O)o3)cnc2OCC2CCN(C)CC2)cn1` [Example 223], for which the inhibition at 1 µM came to 95%.

As to `CCNC(=O)Nc1cc(-c2nc(C(F)(F)F)cs2)c(-c2cc(-c3n[nH]c(=O)o3)cnc2OCCC2CCCN2C)cn1` (centres unmarked) [Example 224], the inhibition at 1 µM was 94%.

Consider `CCNC(=O)Nc1cc(-c2nc(C(F)(F)F)cs2)c(-c2cc(-c3n[nH]c(=O)o3)cnc2OC[C@@H](C)O)cn1` [Example 225], for which the inhibition at 1 µM was 117%.

For `CCNC(=O)Nc1cc(-c2nc(C(F)(F)F)cs2)c(-c2cc(-c3n[nH]c(=O)o3)cnc2OC[C@H](C)O)cn1` [Example 226], the inhibition at 1 µM was determined as 109%.

As to `CCNC(=O)Nc1cc(-c2nc(C(F)(F)F)cs2)c(-c2cc(-c3n[nH]c(=O)o3)cnc2OC2C[C@H]3CC[C@@H](C2)N3C)cn1` (some centres unmarked) [Example 227], the inhibition at 1 µM is 100%.

For the compound `CCNC(=O)Nc1cc(-c2nc(C(F)(F)F)cs2)c(-c2ccnc(-c3nnc(C)o3)c2)cn1` [Example 228], the inhibition at 1 µM turned out to be 93%.

Regarding `CCNC(=O)Nc1cc(-c2nnc(-c3ccccc3)o2)c(-c2ccnc(-c3nnc(C)o3)c2)cn1` [Example 229], the inhibition at 1 µM turned out to be 99%.

For `CCNC(=O)Nc1cc(-c2nnc(-c3ccccc3)o2)c(-c2ncc(-c3nnc(C)o3)s2)cn1` [Example 230], the inhibition at 1 µM was determined as 91%.

As for `CCNC(=O)Nc1cc(-c2nc(-c3cnn(C)c3)cs2)c(-c2cc(-c3nnc(C)o3)cnc2OC2CCOCC2)cn1` [Example 231, 1-ethyl-3-(5′-(5-methyl-1,3,4-oxadiazol-2-yl)-4-(4-(1-methyl-1H-pyrazol-4-yl)thiazol-2-yl)-2′-(tetrahydro-2H-pyran-4-yloxy)-3,3′-bipyridin-6-yl)urea], the inhibition at 1 µM is 96%.

Regarding `CCNC(=O)Nc1cc(-c2nc(-c3cccnc3OCCOC)cs2)c(-c2cc(-c3nnc(C)o3)cnc2OC2CCOCC2)cn1` [Example 232, 1-ethyl-3-(4-(4-(2-(2-methoxyethoxy)pyridin-3-yl)thiazol-2-yl)-5′-(5-methyl-1,3,4-oxadiazol-2-yl)-2′-(tetrahydro-2H-pyran-4-yloxy)-3,3′-bipyridin-6-yl)urea], the inhibition at 1 µM came to 99%.

On to `CCNC(=O)Nc1cc(-c2nc(-c3cnn(C)c3)cs2)c(-c2cncc(-c3nnc(C)o3)c2)cn1` [Example 233, 1-ethyl-3-(5′-(5-methyl-1,3,4-oxadiazol-2-yl)-4-(4-(1-methyl-1H-pyrazol-4-yl)thiazol-2-yl)-3,3′-bipyridin-6-yl)urea], for which the inhibition at 1 µM is 100%.

For `CCNC(=O)Nc1cc(-c2nc(C(F)(F)F)cs2)c(-c2cc(-c3nnc(C)o3)cnc2OCC2CC2)cn1` [Example 234, 1-(2′-(cyclopropylmethoxy)-5′-(5-methyl-1,3,4-oxadiazol-2-yl)-4-(4-(trifluoromethyl)thiazol-2-yl)-3,3′-bipyridin-6-yl)-3-ethylurea], the inhibition at 1 µM turned out to be 105%.

As for `CCNC(=O)Nc1cc(-c2nc(C3CCCC3)cs2)c(-c2cncc(-c3nnc(C)o3)c2)cn1` [Example 235, 1-(4-(4-cyclopentylthiazol-2-yl)-5′-(5-methyl-1,3,4-oxadiazol-2-yl)-3,3′-bipyridin-6-yl)-3-ethylurea], the inhibition at 1 µM is 101%.

In the case of `CCNC(=O)Nc1cc(-c2nc(C3CCCCC3)cs2)c(-c2cncc(-c3nnc(C)o3)c2)cn1` [Example 236, 1-(4-(4-cyclohexylthiazol-2-yl)-5′-(5-methyl-1,3,4-oxadiazol-2-yl)-3,3′-bipyridin-6-yl)-3-ethylurea], the inhibition at 1 µM was determined as 109%.

`CCNC(=O)Nc1cc(-c2nc(C(F)(F)F)cs2)c(-c2cncc(-c3nnc([C@H](C)O)o3)c2)cn1` [Example 237, (S)-1-ethyl-3-(5′-(5-(1-hydroxyethyl)-1,3,4-oxadiazol-2-yl)-4-(4-(trifluoromethyl)thiazol-2-yl)-3,3′-bipyridin-6-yl)urea]: the inhibition at 1 µM came out at 110%.

In the case of `CCNC(=O)Nc1cc(-c2nc(C(F)(F)F)cs2)c(-c2cncc(-c3nnc([C@@H](N)C4CCCCC4)o3)c2)cn1` [Example 238, (S)-1-(5′-(5-(amino(cyclohexyl)methyl)-1,3,4-oxadiazol-2-yl)-4-(4-(trifluoromethyl)thiazol-2-yl)-3,3′-bipyridin-6-yl)-3-ethylurea], the inhibition at 1 µM amounted to 96%.

As for `CCNC(=O)Nc1cc(-c2nc(C(F)(F)F)cs2)c(-c2cncc(-c3nnc([C@@H]4COCCN4)o3)c2)cn1` [Example 239, (S)-1-ethyl-3-(5′-(5-(morpholin-3-yl)-1,3,4-oxadiazol-2-yl)-4-(4-(trifluoromethyl)thiazol-2-yl)-3,3′-bipyridin-6-yl)urea], the inhibition at 1 µM was 94%.

For `CCNC(=O)Nc1cc(-c2nc(C(F)(F)F)cs2)c(-c2cncc(-c3nnc([C@H]4COCCN4)o3)c2)cn1` [Example 240, (R)-1-ethyl-3-(5′-(5-(morpholin-3-yl)-1,3,4-oxadiazol-2-yl)-4-(4-(trifluoromethyl)thiazol-2-yl)-3,3′-bipyridin-6-yl)urea], the inhibition at 1 µM turned out to be 95%.

Turning to `CCNC(=O)Nc1cc(-c2nc(C(F)(F)F)cs2)c(-c2ccnc(-c3nnc([C@@H](N)C4CCCCC4)o3)c2)cn1` [Example 241, (S)-1-(2′-(5-(amino(cyclohexyl)methyl)-1,3,4-oxadiazol-2-yl)-4-(4-(trifluoromethyl)thiazol-2-yl)-3,4′-bipyridin-6-yl)-3-ethylurea], the inhibition at 1 µM amounted to 97%.

As to `CCNC(=O)Nc1cc(-c2nc(C(F)(F)F)cs2)c(-c2ccnc(-c3nnc([C@@H]4COCCN4)o3)c2)cn1` [Example 242, (S)-1-ethyl-3-(2′-(5-(morpholin-3-yl)-1,3,4-oxadiazol-2-yl)-4-(4-(trifluoromethyl)thiazol-2-yl)-3,4′-bipyridin-6-yl)urea], the inhibition at 1 µM was determined as 118%.

`CCNC(=O)Nc1cc(-c2nc(C(F)(F)F)cs2)c(-c2ccnc(-c3nnc([C@H]4COCCN4)o3)c2)cn1` [Example 243, (R)-1-ethyl-3-(2′-(5-(morpholin-3-yl)-1,3,4-oxadiazol-2-yl)-4-(4-(trifluoromethyl)thiazol-2-yl)-3,4′-bipyridin-6-yl)urea]: the inhibition at 1 µM worked out at 122%.

Take `CCNC(=O)Nc1cc(-c2nc(C(F)(F)F)cs2)c(-c2ccnc(-c3nnc([C@@H](NC)C(C)C)o3)c2)cn1` [Example 244, (S)-1-ethyl-3-(2′-(5-(2-methyl-1-(methylamino)propyl)-1,3,4-oxadiazol-2-yl)-4-(4-(trifluoromethyl)thiazol-2-yl)-3,4′-bipyridin-6-yl)urea]: the inhibition at 1 µM was found to be 96%.

For the compound `CCNC(=O)Nc1cc(-c2nc(-c3cccc(OC)n3)cs2)c(-c2cncc(S(N)(=O)=O)c2)cn1` [Example 247, 6′-(3-ethylureido)-4′-(4-(6-methoxypyridin-2-yl)thiazol-2-yl)-3,3′-bipyridine-5-sulfonamide], the inhibition at 1 µM was found to be 100%.

`CCNC(=O)Nc1cc(-c2nc(-c3cccc(OC)n3)cs2)c(-c2ccnc(-c3n[nH]c(=O)o3)c2)cn1` [Example 248, 1-ethyl-3-(4-(4-(6-methoxypyridin-2-yl)thiazol-2-yl)-2′-(5-oxo-4,5-dihydro-1,3,4-oxadiazol-2-yl)-3,4′-bipyridin-6-yl)urea]: the inhibition at 1 µM turned out to be 104%.

`CCNC(=O)Nc1cc(-c2nc(-c3cccc(OC)n3)cs2)c(-c2ccnc(-c3nnc(C)o3)c2)cn1` [Example 249, 1-ethyl-3-(4-(4-(6-methoxypyridin-2-yl)thiazol-2-yl)-2′-(5-methyl-1,3,4-oxadiazol-2-yl)-3,4′-bipyridin-6-yl)urea]: the inhibition at 1 µM was 97%.

On to `CCNC(=O)Nc1cc(-c2nc(-c3cccc(OC)n3)cs2)c(-c2cncc(-c3nnc(C)o3)c2)cn1` [Example 250, 1-ethyl-3-(4-(4-(6-methoxypyridin-2-yl)thiazol-2-yl)-5′-(5-methyl-1,3,4-oxadiazol-2-yl)-3,3′-bipyridin-6-yl)urea], for which the inhibition at 1 µM turned out to be 101%.

Take `CCNC(=O)Nc1cc(-c2nc(-c3cccc(OC)n3)cs2)c(-c2nc(-c3ncnn3C)c(-c3n[nH]c(=O)o3)s2)cn1` [Example 251, 1-ethyl-3-(4-(4-(6-methoxypyridin-2-yl)thiazol-2-yl)-5-(4-(1-methyl-1H-1,2,4-triazol-5-yl)-5-(5-oxo-4,5-dihydro-1,3,4-oxadiazol-2-yl)thiazol-2-yl)pyridin-2-yl)urea]: the inhibition at 1 µM was 99%.
